How the values were obtained:
Angiotensin I = assay: Lowering of blood pressure raised by i.v. angiotensin I in the anaesthetised rat; format: in vivo, Ratte; conditions: anaesthetised rat, 0,3 mg/kg i.v.; blood pressure raised beforehand by 0,1 mg/kg Angiotensin I i.v.
Description: So erzeugt N-[N^α-(3-Phenyl-2-S-mercaptopropanoyl)-S-lysyl]-thiazolidin-4-S-carbonsäure an der narkotisierten Ratte in einer Dosierung von 0,3 mg/kg i.v. eine lang anhaltende Blutdrucksenkung von 60 %, wenn man vorher durch eine i.v.-Gabe von 0,1 mg/kg Angiotensin I den Blutdruck steigert; beim N-[N^a-(3-Phenyl-2-S-mercaptopropanoyl)S-lysyl]-S-prolin liegt der Wert bei gleichem Test bei 57 %.

[1] = target: T1, Angiotensin I Converting Enzym (Oryctolagus cuniculus, UniProt P12822); assay: Inhibition of angiotensin I converting enzyme in vitro; format: biochemical; conditions: inhibitor concentration at which the enzyme is 50 % inhibited (Cheung, Cushman method), read-out: Hemmaktivität IC50
T1 sequence (P12822 34-1310): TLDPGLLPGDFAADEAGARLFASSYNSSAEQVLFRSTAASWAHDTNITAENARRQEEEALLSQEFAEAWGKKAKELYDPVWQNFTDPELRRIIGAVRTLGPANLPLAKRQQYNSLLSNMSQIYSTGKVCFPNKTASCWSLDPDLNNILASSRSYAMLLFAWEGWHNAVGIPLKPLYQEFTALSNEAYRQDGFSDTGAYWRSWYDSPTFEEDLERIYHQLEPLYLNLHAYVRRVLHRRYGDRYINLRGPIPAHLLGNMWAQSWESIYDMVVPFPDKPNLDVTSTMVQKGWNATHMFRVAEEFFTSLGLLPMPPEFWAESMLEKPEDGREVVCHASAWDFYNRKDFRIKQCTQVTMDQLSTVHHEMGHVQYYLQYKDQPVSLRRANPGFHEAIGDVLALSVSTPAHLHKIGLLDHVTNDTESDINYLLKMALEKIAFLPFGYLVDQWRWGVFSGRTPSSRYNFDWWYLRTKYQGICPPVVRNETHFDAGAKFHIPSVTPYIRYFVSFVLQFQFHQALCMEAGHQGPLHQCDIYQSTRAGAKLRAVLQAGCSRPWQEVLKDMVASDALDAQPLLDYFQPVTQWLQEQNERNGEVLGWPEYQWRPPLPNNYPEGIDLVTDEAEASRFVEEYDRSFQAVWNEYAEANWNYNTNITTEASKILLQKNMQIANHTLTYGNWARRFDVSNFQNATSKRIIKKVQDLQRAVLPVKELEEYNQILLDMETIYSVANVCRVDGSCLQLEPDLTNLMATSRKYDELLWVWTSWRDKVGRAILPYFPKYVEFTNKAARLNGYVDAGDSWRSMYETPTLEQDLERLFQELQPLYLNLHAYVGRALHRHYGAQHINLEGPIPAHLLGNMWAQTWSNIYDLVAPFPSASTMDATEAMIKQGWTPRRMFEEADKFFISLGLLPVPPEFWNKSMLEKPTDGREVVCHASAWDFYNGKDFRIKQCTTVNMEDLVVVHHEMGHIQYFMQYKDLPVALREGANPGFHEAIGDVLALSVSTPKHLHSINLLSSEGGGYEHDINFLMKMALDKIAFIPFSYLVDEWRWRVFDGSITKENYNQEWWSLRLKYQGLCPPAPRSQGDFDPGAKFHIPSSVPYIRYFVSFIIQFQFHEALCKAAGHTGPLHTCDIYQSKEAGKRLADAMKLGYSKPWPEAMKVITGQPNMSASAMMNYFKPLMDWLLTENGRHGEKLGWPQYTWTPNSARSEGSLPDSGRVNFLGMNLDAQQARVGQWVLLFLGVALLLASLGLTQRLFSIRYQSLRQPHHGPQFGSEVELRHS
Excerpt: N-[N^α-(3-Phenyl-2-S-mercaptopropanoyl)-S-lysyl]-thiazolidin-4-S-carbonsäure zeigt am Angiotensin I Converting Enzym in vitro eine Hemmaktivität IC50= 4,6 . 10^-9 [M]; die IC50 beträgt beim N-[N^αa-(3-Phenpl-2-S-mercaptopropanoyl)-S-lysyl]-S-prolin 2,7 . 10-^8 [M].
Als IC50 wird hierbei diejenige Hemmstoffkonzentration bezeichnet, bei der das Angiotensin I Converting Enzym zu 50 % gehemmt wird (s. H. S. Cheung, D. W. Cushman, Biochem. Biophys. Acta 293, 451 (1973)).

Molecule	lang anhaltende Blutdrucksenkung (Angiotensin I) [%]	IC50 [1] [nM]
NCCCC[C@H](NC(=O)[C@@H](S)Cc1ccccc1)C(=O)N1CCC[C@H]1C(=O)O [Beispiel 11]	57	
N-[N^α-(3-Phenyl-2-S-mercaptopropanoyl)-S-lysyl]-thiazolidin-4-S-carbonsäure [Beispiel 3]	60	4.6
